# Source: patent publication US20130059783A1, “COMPOSITIONS AND METHODS FOR EXPANDING BFU-E CELLS” (priority 2010, published 2013)
# Legend:
# [1] = test system: fetal liver erythroid progenitor (FLEP) cells; assay: Colony forming assays of magnetically depleted fetal liver cells (Table S1); type: cell-based, mouse
# Protocol: The negatively enriched cell populations were subjected to colony forming assays under two different conditions. […] CFU-E colonies were counted 3 days later. […] These cells were cultured 8-9 days before late BFU-E, early BFU-E, CFU-G/M/Mk (granulocyte, monocyte, megakaryocyte), and CFU-GEMM (granulocyte, erythrocyte, monocyte, megakaryocyte) colonies were scored. BFU-Es consisting of a cluster of only 5-20 CFU-Es were scored as late, while larger BFU-Es were scored as early. 2,7-fluorenediamine was used to stain hemoglobin-containing colonies in the plates. […] Standard deviation between experiments is shown in parenthesis.
# The first step towards enrichment of BFU-E and CFU-E cells was to remove more mature blood cells from single cell suspensions of fetal livers by magnetic column depletion. We stained fetal liver cells with a panel of biotin labeled anti-lineage (Lin) antibodies (Ter119, B220, Mac-1, CD3 and Gr-1), followed by anti-biotin tetramer and magnetic colloid labeling. All positive cells were depleted using magnetic columns.
# (§1) Colonies were scored after 3 days. […] The number of hemoglobinized early BFU-E and late BFU-E colonies was determined after 8-9 days following staining with 2,7-Diaminofluorene (Sigma Chemical, St. Louis, Mo.).
# BFU-E cells = assay: CFU-E and BFU-E colony forming assays of BFU-E cells cultured in SFELE medium; type: cell-based, mouse; settings: for Total colony numbers from 1,000 "BFU-E" cells: CFU-E 1 cluster / Total colony numbers from 1,000 "BFU-E" cells: large BFU-E >20 clusters / Total colony numbers from 1,000 "BFU-E" cells: small BFU-E 5-20 clusters: CD24 and CD71 10% low BFU-E cells, SFELE, 100 nM Dex and/or 333 μM DMOG; for Total colony numbers from 1000 BFU-E cells: Large BFU-E / Total colony numbers from 1000 BFU-E cells: Single CFU-E / Total colony numbers from 1000 BFU-E cells: Small BFU-E: CD71 10% low BFU-E cells, SFELE with 100 nM Dex
# Protocol: Dexamethasone prevents BFU-E cell exhaustion, which allows more CFU-E cells to be formed. […] (A) The total number of cells formed from 1000 BFU-E cells at different time points. […] Standard deviation between four separate biological experiments is shown in parenthesis (n/d=not determined).
# At daily intervals colony assays were performed (Table 2). As in the experiment in FIG. 3, for the first three days the total number of cells increased at the same rate in all cultures.
# as §1
# [2] = Lin− fetal liver cells, EPO, SCF, IL-3, IL-6, 100 nM Dex
# [3] = Lin−, CD32/16− cells, 100 nM Dex
# [4] = Lin−, CD32/16−, Sca-1− cells, 100 nM Dex
# [5] = Lin−, CD32/16−, Sca-1−, CD41− cells, 100 nM Dex
# [6] = Lin−, CD32/16−, Sca-1−, CD41−, CD34− (FLEP cells), 100 nM Dex
# [7] = CD71 10% low cells, SFELE with Dex, Day 3
# [8] = Day 3 of culture, 100 nM Dex or 333 μM DMOG alone
smiles,measurement,setting,value
"C[C@@H]1C[C@H]2[C@@H]3CCC4=CC(=O)C=C[C@]4(C)[C@@]3(F)[C@@H](O)C[C@]2(C)[C@@]1(O)C(=O)CO [Dex, dexamethasone]","CFU-G/M/Meg colonies, scored day 8-9",[1]; [2],25 (±5) colonies per 1000 plated cells
same,"GEMM colonies, scored day 8-9",[1]; [2],7 (±4) colonies per 1000 plated cells
same,"early BFU-E colonies, scored day 8-9",[1]; [2],39 (±12) colonies per 1000 plated cells
same,"late BFU-E colonies, scored day 8-9",[1]; [2],53 (±13) colonies per 1000 plated cells
same,"CFU-E colonies, scored day 3","[1]; Lin− fetal liver cells, methylcellulose 10U EPO/mL, 100 nM Dex",472 (±79) colonies per 1000 plated cells
same,"CFU-G/M/Meg colonies, scored day 8-9",[1]; [3],17 (±10) colonies per 1000 plated cells
same,"GEMM colonies, scored day 8-9",[1]; [3],5 (±2) colonies per 1000 plated cells
same,"early BFU-E colonies, scored day 8-9",[1]; [3],37 (±12) colonies per 1000 plated cells
same,"late BFU-E colonies, scored day 8-9",[1]; [3],69 (±14) colonies per 1000 plated cells
same,"CFU-E colonies, scored day 3","[1]; Lin−, CD32/16− fetal liver cells, 10U EPO/mL, 100 nM Dex",560 (±245) colonies per 1000 plated cells
same,"CFU-G/M/Meg colonies, scored day 8-9",[1]; [4],7 (±3) colonies per 1000 plated cells
same,"GEMM colonies, scored day 8-9",[1]; [4],0.2 (±0.3) colonies per 1000 plated cells
same,"early BFU-E colonies, scored day 8-9",[1]; [4],24 (±5) colonies per 1000 plated cells
same,"late BFU-E colonies, scored day 8-9",[1]; [4],110 (±10) colonies per 1000 plated cells
same,"CFU-G/M/Meg colonies, scored day 8-9",[1]; [5],9 (±12) colonies per 1000 plated cells
same,"GEMM colonies, scored day 8-9",[1]; [5],0.3 (±0.4) colonies per 1000 plated cells
same,"early BFU-E colonies, scored day 8-9",[1]; [5],10 (±4) colonies per 1000 plated cells
same,"late BFU-E colonies, scored day 8-9",[1]; [5],142 (±77) colonies per 1000 plated cells
same,"CFU-G/M/Meg colonies, scored day 8-9",[1]; [6],4 (±6) colonies per 1000 plated cells
same,"GEMM colonies, scored day 8-9",[1]; [6],0.3 (±0.5) colonies per 1000 plated cells
same,"early BFU-E colonies, scored day 8-9",[1]; [6],23 (±17) colonies per 1000 plated cells
same,"late BFU-E colonies, scored day 8-9",[1]; [6],141 (±84) colonies per 1000 plated cells
same,"Total colony numbers from 1,000 ""BFU-E"" cells: CFU-E 1 cluster",BFU-E cells; day 0 (before culture),30 (±11)
same,"Total colony numbers from 1,000 ""BFU-E"" cells: large BFU-E >20 clusters",BFU-E cells; day 0 (before culture),423 (±31)
same,"Total colony numbers from 1,000 ""BFU-E"" cells: small BFU-E 5-20 clusters",BFU-E cells; day 0 (before culture),262 (±64)
same,"Total colony numbers from 1,000 ""BFU-E"" cells: CFU-E 1 cluster",BFU-E cells; day 1,424 (±271)
same,"Total colony numbers from 1,000 ""BFU-E"" cells: large BFU-E >20 clusters",BFU-E cells; day 1,463 (±61)
same,"Total colony numbers from 1,000 ""BFU-E"" cells: small BFU-E 5-20 clusters",BFU-E cells; day 1,"1,766 (±695)"
same,"Total colony numbers from 1,000 ""BFU-E"" cells: CFU-E 1 cluster",BFU-E cells; day 2,"11,468 (±1,088)"
same,"Total colony numbers from 1,000 ""BFU-E"" cells: large BFU-E >20 clusters",BFU-E cells; day 2,482 (±110)
same,"Total colony numbers from 1,000 ""BFU-E"" cells: small BFU-E 5-20 clusters",BFU-E cells; day 2,"5,771 (±1,625)"
same,"Total colony numbers from 1,000 ""BFU-E"" cells: CFU-E 1 cluster",BFU-E cells; day 3,"60,699 (±22,369)"
same,"Total colony numbers from 1,000 ""BFU-E"" cells: large BFU-E >20 clusters",BFU-E cells; day 3,400 (±108)
same,"Total colony numbers from 1,000 ""BFU-E"" cells: small BFU-E 5-20 clusters",BFU-E cells; day 3,"8,334 (±2,489)"
same,"Total colony numbers from 1,000 ""BFU-E"" cells: CFU-E 1 cluster",BFU-E cells; day 4,"138,600 (±24,546)"
same,"Total colony numbers from 1,000 ""BFU-E"" cells: CFU-E 1 cluster",BFU-E cells; day 5,"261,550 (±98,160)"
same,"Total colony numbers from 1,000 ""BFU-E"" cells: large BFU-E >20 clusters",BFU-E cells; day 5,0
same,"Total colony numbers from 1,000 ""BFU-E"" cells: small BFU-E 5-20 clusters",BFU-E cells; day 5,"10,271 (±3,344)"
same,"Total colony numbers from 1,000 ""BFU-E"" cells: CFU-E 1 cluster",BFU-E cells; day 6,"249,160 (±55,172)"
same,"Total colony numbers from 1,000 ""BFU-E"" cells: CFU-E 1 cluster",BFU-E cells; day 7 (performed twice),"176,000 (±15,556)"
same,"Total colony numbers from 1,000 ""BFU-E"" cells: CFU-E 1 cluster",BFU-E cells; day 8 (performed twice),"66,000 (±56,003)"
same,Total colony numbers from 1000 BFU-E cells: Large BFU-E,BFU-E cells; 0 h (before culture),241 (±79)
same,Total colony numbers from 1000 BFU-E cells: Single CFU-E,BFU-E cells; 0 h (before culture),73 (±26)
same,Total colony numbers from 1000 BFU-E cells: Small BFU-E,BFU-E cells; 0 h (before culture),277 (±89)
same,Total colony numbers from 1000 BFU-E cells: Large BFU-E,BFU-E cells; 24 h,181 (±132)
same,Total colony numbers from 1000 BFU-E cells: Single CFU-E,BFU-E cells; 24 h,"1,164 (±593)"
same,Total colony numbers from 1000 BFU-E cells: Small BFU-E,BFU-E cells; 24 h,"1,568 (±604)"
same,Total colony numbers from 1000 BFU-E cells: Large BFU-E,BFU-E cells; 48 h,130 (±53)
same,Total colony numbers from 1000 BFU-E cells: Single CFU-E,BFU-E cells; 48 h,"25,342 (±5,714)"
same,Total colony numbers from 1000 BFU-E cells: Small BFU-E,BFU-E cells; 48 h,"6,730 (±515)"
same,Total colony numbers from 1000 BFU-E cells: Large BFU-E,BFU-E cells; 72 h,150 (±58)
same,Total colony numbers from 1000 BFU-E cells: Single CFU-E,BFU-E cells; 72 h,"122,413 (±14,086)"
same,Total colony numbers from 1000 BFU-E cells: Small BFU-E,BFU-E cells; 72 h,"15,350 (±3,838)"
same,Total colony numbers from 1000 BFU-E cells: Single CFU-E,BFU-E cells; 120 h,"904,050 (±434,778)"
same,Late BFU-Es per initial sorted BFU-E cell,"BFU-E cells; CD71 10% low cells, SFELE with Dex, Day 2",67
same,CFU-Es formed per BFU-E,BFU-E cells; [7],122
same,Late BFU-Es per initial sorted BFU-E cell,BFU-E cells; [7],153
same,BFU-Es per plated BFU-E,BFU-E cells; [8],8.7
same,CFU-Es per plated BFU-E,BFU-E cells; [8],51
same,Increase of number of CFU-E cells between Days 3 and 5,BFU-E cells; cultures with Dex,7.3 fold
